{"source": "patent US9790180B2", "about": "“Piperidine derivatives as HDAC1/2 inhibitors” (Acetylon Pharmaceuticals, Inc., priority 2014, dated 2017)", "key": {"[1]": {"biological_target": "hERG channel (Homo sapiens (Human), UniProt Q12809)", "sequence (Q12809 whole entry)": "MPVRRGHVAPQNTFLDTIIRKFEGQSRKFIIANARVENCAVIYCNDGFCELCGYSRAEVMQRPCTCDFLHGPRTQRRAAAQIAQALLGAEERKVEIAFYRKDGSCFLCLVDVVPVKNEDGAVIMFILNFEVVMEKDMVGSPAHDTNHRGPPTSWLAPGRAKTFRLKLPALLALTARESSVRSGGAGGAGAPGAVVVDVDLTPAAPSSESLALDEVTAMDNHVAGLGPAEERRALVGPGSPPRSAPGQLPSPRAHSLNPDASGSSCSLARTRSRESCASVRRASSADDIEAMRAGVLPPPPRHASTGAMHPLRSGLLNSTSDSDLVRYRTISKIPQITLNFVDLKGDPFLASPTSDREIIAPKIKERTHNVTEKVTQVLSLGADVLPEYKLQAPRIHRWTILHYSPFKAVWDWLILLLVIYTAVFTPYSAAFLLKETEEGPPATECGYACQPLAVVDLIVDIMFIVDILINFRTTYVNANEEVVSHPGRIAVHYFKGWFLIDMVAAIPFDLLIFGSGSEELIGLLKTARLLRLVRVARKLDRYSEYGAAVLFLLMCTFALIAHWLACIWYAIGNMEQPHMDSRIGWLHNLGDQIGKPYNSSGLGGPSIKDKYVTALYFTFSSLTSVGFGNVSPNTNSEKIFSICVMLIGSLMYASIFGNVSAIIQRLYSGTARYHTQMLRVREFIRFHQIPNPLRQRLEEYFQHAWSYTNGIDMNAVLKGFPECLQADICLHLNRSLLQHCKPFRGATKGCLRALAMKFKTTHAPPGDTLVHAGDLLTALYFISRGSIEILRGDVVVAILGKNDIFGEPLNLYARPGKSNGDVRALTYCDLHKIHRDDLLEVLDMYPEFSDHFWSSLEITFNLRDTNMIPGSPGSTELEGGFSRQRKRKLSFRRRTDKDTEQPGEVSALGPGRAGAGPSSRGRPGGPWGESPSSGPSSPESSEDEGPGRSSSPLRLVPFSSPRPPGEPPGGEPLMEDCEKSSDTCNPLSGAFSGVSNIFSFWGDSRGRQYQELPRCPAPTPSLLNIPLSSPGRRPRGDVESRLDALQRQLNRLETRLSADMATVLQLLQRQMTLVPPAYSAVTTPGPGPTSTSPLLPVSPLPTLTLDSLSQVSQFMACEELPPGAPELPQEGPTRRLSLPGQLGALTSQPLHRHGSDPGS", "assay": "hERG assay (QPatch, CHO cell line expressing hERG channels)", "type": "cell-based", "details": "In vitro tox", "protocol": "For hERG assays, a CHO cell line stably transfected with hERG cDNA and expressing hERG channels were seeded into a QPatch plate (Sophion) at a density of 3-8×10^6 cells/ml. The cells were voltage clamped at a holding potential of −80 mV. The hERG current was activated by depolarizing at +20 mV for 5 sec, after which the current was taken back to −50 mV for 5 sec to remove the inactivation and observe the deactivating tail current. The maximum amount of tail current size was used to determine hERG current amplitude. Six doses (30, 10, 3, 1, 0.3 and 0.1 μM) of Compound 003 were chosen to obtain fitting curves and IC50. Data were analyzed using Assay Software provided by Sophion and Graphpad Prism."}, "[2]": {"biological_target": "HDAC2 (Homo sapiens (Human), UniProt Q92769)", "sequence (Q92769 whole entry)": "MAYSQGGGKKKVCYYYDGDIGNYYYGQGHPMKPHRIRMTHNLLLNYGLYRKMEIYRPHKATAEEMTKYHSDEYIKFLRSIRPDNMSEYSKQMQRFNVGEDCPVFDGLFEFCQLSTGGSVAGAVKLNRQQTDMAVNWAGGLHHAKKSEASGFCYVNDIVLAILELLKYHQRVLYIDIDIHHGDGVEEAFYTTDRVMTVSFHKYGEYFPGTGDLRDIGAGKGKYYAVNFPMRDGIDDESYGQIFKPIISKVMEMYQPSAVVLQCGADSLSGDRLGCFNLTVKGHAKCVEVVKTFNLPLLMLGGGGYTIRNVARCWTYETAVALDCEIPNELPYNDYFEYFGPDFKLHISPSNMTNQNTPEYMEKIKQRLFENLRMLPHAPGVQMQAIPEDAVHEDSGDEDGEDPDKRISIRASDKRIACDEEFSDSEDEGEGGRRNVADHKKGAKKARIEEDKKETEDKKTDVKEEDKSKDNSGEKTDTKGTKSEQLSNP", "assay": "HDAC enzyme assay, HDAC2", "type": "biochemical", "details": "24 hours pre-incubation with enzyme; read-out: IC50 (nM) HDAC2"}, "[3]": {"tested_on": "human peripheral blood lymphocytes (HPBL)", "assay": "Micronucleus formation assay", "type": "cell-based", "details": "In vitro tox", "protocol": "Genotoxicity was further evaluated by micronucleus formation assay in human peripheral blood lymphocytes (HPBL). HPBL were obtained from healthy donors and exposed to Compound 003 at […] for 4 hours with or without S9 activation. The cells were washed with PBS and incubated in complete medium with 6 μg/ml cytocholasin B for 24 hours. The cells were then lysed, fixed, and mounted on microscope slides. The number of mononucleated, binucleated, and micronucleated cells was counted under blinded conditions."}, "[4]": {"tested_on": "bacterial tester strains TA98, TA100, TA1535 and TA97a and E. coli tester strain WP2 uvrA", "assay": "Ames genotoxicity (bacterial reverse mutation)", "details": "In vitro tox", "protocol": "For genotoxicity, bacterial tester strains TA98, TA100, TA1535 and TA97a as described by Ames et al. (1975) and the E. coli tester strain WP2 uvrA as described by Green and Muriel (1976) were incubated with Compound 003 at 250, 75, 25, 7.5, 2.5, 0.75, 0.25, and 0.075 μg/well in 24 well plates either with or without liver homogenate (S9) purchased commercially (MolTox; Boone, N.C.) prepared from male Sprague Dawley rats that have been injected intraperitonealy with Aroclor 1254 (200 mg/mL in corn oil), at a dose of 500 mg/kg, 5 days before sacrifice. Mutagenicity is evaluated by counting the number of colonies that form on non-permissive media."}, "[5]": {"assay": "Rat cassette pharmacokinetics", "type": "in vivo", "details": "male, SD, plasma", "protocol": "Male SD rats were fasted overnight. Compounds of the invention were dissolved in dimethyl acetamide at 10 times the final concentration, then Solutol HS 15 (BASF) was added to a final concentration of 10%. Finally 80% saline was added and vortexed to achieve a clear solution. For the IV dosing three animals were injected via the foot dorsal vein with 1 mg/kg compound. For the PO dosing 5 mg/kg of compound was delivered by oral gavage. Blood was collected via the tail vein into K2EDTA tubes at 5 minutes, 15 minutes, 30 minutes, 1 hour, 2 hours, 4 hours, 8 hours and 24 hours after dosing. The blood was centrifuged at 2000 g for 5 minutes at 4° C. to obtain plasma. The plasma was extracted with acetonitrile and the level of compound was analyzed by LC/MS/MS. The level of compound in plasma was calculated from a standard curve in rat plasma. The IV clearance and area under the curve were calculated using WinNonLin software. The dose adjusted area under the curve for the IV and oral dosing were used to calculate the oral bioavailability."}, "[6]": {"tested_on": "Gata2 mRNA", "assay": "Gata2 mRNA induction in erythroid progenitors", "type": "cell-based, human", "details": "primary erythroid progenitors, 3 days differentiation, relative to beta-actin mRNA (FIG. 7)", "source_text": "Human bone marrow derived CD34+ cells were expanded for 7 days as described by Sankaran et al., Science, vol. 322(5909), pp. 1839-42 (2008). Cells were then differentiated, in the presence of the indicated concentration of Compound 005, Compound A (another known HDAC1/2 inhibitor), or vehicle control (DMSO), for 3 days in media supporting erythropoiesis (Hu et al., “Isolation and functional characterization of human erythroblasts at distinct stages: implications for understanding of normal and disordered erythropoiesis in vivo”, Blood, vol. 121(16), pp. 3246-53 ([…])). Gata2 mRNA was determined using quantitative real time PCR and expressed relative to the level beta-actin mRNA control."}, "[7]": {"biological_target": "HDAC1 (Homo sapiens (Human), UniProt Q13547)", "sequence (Q13547 whole entry)": "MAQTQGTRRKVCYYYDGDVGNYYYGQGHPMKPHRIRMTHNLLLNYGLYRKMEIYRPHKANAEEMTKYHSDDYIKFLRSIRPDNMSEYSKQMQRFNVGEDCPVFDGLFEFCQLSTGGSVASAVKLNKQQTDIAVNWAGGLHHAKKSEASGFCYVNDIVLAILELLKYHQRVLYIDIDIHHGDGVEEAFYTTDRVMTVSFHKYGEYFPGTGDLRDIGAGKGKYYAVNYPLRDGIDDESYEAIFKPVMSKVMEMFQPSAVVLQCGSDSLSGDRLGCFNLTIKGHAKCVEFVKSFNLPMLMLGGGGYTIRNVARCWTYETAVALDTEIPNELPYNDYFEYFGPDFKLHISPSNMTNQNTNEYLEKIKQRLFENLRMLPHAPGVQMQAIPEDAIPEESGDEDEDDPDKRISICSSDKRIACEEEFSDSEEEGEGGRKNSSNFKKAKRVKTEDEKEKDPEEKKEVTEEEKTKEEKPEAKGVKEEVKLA", "assay": "HDAC enzyme assay, HDAC1", "type": "biochemical", "details": "24 hours pre-incubation with enzyme; read-out: IC50 (nM) HDAC1"}, "[8]": {"tested_on": "CYP1A2, CYP2C9, CYP2C19, CYP3A4, CYP2D6", "assay": "Cyp inhibition in human liver microsomes", "type": "in vitro ADME", "details": "In vitro tox; human liver microsomes", "protocol": "For Cyp inhibition, human live microsomes from BD Gentest were incubated with Compound 003 (10, 3.33, 1.11, 0.37, 0.12, 0.04, 0.01 μM) and substrate (CYP1A2: Phenacetin at 30 μM; CYP2C9: Diclofenac at 10 μM; CYP2C19: S-Mephenytoin at 35 μM; CYP3A4: Midazolam at 5 μM and Testosterone at 80 μM; CYP2D6: Bufuralol at 10 μM) for the following incubation times: CYP1A2, 2C9, 2D6: 10 minutes, 37° C.; CYP2C19: 45 minutes, 37° C.; CYP3A4: 5 minutes, 37° C. Substrate conversion was measured by liquid chromatography/mass spectrometry/mass spectrometry (LC/MS/MS). Inhibition was calculated by curve fitting in Graph Pad Prism."}, "[9]": {"details": "rat cassette dosing, 5 mg/kg PO"}}}
{"smiles": "CN1CCN(C(=O)N2CCC(Nc3ccc(C(=O)Nc4cc(-c5cccs5)ccc4N)cc3)CC2)CC1", "note": "[Compound 005]", "values": [{"measurement": "hERG", "setting": "[1]", "value": 13.8, "unit": "µM"}, {"measurement": "IC50", "setting": "[2]", "value": 4.9, "unit": "nM"}, {"measurement": "MN", "setting": "[3]", "value": "Neg"}, {"measurement": "Ames", "setting": "[4]", "value": "Neg"}, {"measurement": "bioavailability", "setting": "[5]; 5 mg/kg, rat, oral AUC to IV AUC, dose adjusted", "value": 79, "unit": "%"}, {"measurement": "AUC", "setting": "[5]; [9]", "value": 9160, "unit": "ng·h/mL"}, {"measurement": "Cmax", "setting": "[5]; [9]", "value": 569, "unit": "ng/mL"}, {"measurement": "half-life", "setting": "[5]; rat cassette dosing, 5 mg/kg PO, read-out: PO T½ (converted)", "value": "> 1440", "unit": "min"}, {"measurement": "CL renal", "setting": "[5]; rat cassette dosing, IV 1 mg/kg, read-out: IV Clr. (converted)", "value": 6.33, "unit": "mL/min/kg"}, {"measurement": "induction of Gata2 mRNA", "setting": "[6]", "value": "equivalent dose and time-dependent induction"}, {"measurement": "IC50", "setting": "[7]", "value": 1.2, "unit": "nM"}, {"measurement": "Cyp", "setting": "[8]", "value": ">10", "unit": "µM"}]}
